pKi: −log10 of the molar value. Counter-ions that a name gives are not always drawn.
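Further: radioligand displacement of a [3H]-labelled ligand from membranes of CHO cells stably expressing human H4 receptor, bound radioactivity counted on filters by liquid scintillation.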

The target of this assay is human H4 receptor (Homo sapiens, UniProt Q9H3N8). Put plainly: biochemical.
Sequence of human H4 receptor (Q9H3N8 whole entry): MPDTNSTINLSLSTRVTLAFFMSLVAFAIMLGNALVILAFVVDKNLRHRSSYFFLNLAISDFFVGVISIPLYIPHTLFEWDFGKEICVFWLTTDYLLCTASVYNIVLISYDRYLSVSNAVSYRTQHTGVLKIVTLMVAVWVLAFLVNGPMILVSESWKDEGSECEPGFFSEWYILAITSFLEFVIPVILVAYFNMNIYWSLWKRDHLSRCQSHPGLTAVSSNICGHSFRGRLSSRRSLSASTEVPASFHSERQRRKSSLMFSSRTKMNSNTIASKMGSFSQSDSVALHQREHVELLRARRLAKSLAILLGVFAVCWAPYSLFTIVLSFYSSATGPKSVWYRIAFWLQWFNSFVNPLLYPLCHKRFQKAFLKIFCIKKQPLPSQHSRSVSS
On to `Cc1ccccc1-c1cn2c(n1)C(OC1CCN(C)CC1)c1ccccc1CC2` (stereo not drawn) [Example 8, 4-(1-methyl-piperidin-4-yloxy)-2-o-tolyl-9,10-dihydro-4H-3,10a-diaza-benzo[f]azulene], for which the pKi – broadly, the negative decadic logarithm of the Ki, by convention in mol/L – is over 6.52.

As for `C=Cc1cn2c(n1)C(OC1CCN(C)CC1)c1ccccc1CC2` (stereo not drawn) [Example 9, 4-(1-methylpiperidin-4-yloxy)-2-vinyl-9,10-dihydro-4H-3,10a-diaza-benzo[f]azulene oxalate], the pKi is over 6.00.

On to `CCc1cn2c(n1)C(OC1CCN(C)CC1)c1ccccc1CC2` (stereo not drawn) [Example 13, 2-ethyl-4-(1-methylpiperidin-4-yloxy)-9,10-dihydro-4H-3,10a-diaza-benzo[f]azulene oxalate], for which the pKi was over 6.52.

With `CN1CCC(OC2c3ccccc3CCn3cc(-c4ccc(S(C)(=O)=O)cc4)nc32)CC1` (stereo not drawn) [Example 17, 2-(4-methanesulfonylphenyl)-4-(1-methylpiperidin-4-yloxy)-9,10-dihydro-4H-3,10a-diaza-benzo[f]azulene], the pKi was over 6.52.

For `CN1CCC(OC2c3ccccc3CCn3cc(-c4ccc(CO)cc4)nc32)CC1` (stereo not drawn) [Example 18, {4-[4-(1-methylpiperidin-4-yloxy)-9,10-dihydro-4H-3,10a-diaza-benzo[f]azulen-2-yl]-phenyl}-methanol], the pKi is over 6.00.

In turn, `COCc1ccc(-c2cn3c(n2)C(OC2CCN(C)CC2)c2ccccc2CC3)cc1` (stereo not drawn) [Example 19, 2-(4-methoxymethylphenyl)-4-(1-methylpiperidin-4-yloxy)-9,10-dihydro-4H-3,10a-diaza-benzo[f]azulene oxalate] had a negative logarithm of the Ki (pKi) of over 6.52.

In the case of `CN1CCC(OC2c3ccccc3CCn3cc(-c4ccccn4)nc32)CC1` (stereo not drawn) [Example 23, 4-(1-methylpiperidin-4-yloxy)-2-pyridin-2-yl-9,10-dihydro-4H-3,10a-diaza-benzo[f]azulene], the pKi was over 6.00.

The molecule `CN1CCC(OC2c3ccccc3CCn3cc(-c4ccco4)nc32)CC1` (stereo not drawn) [Example 24, 2-furan-2-yl-4-(1-methylpiperidin-4-yloxy)-9,10-dihydro-4H-3,10a-diaza-benzo[f]azulene] gave a pKi of over 6.52.

In turn, `CC(C)Cc1ccc(-c2cn3c(n2)C(OC2CCN(C)CC2)c2ccccc2CC3)cc1` (stereo not drawn) [Example 28, 2-(4-isobutylphenyl)-4-(1-methylpiperidin-4-yloxy)-9,10-dihydro-4H-3,10a-diaza-benzo[f]azulene] gave a pKi of over 7.52.

On to `CN1CCC(OC2c3ccccc3CCn3cc(-c4ccc(N(C)C)cc4)nc32)CC1` (stereo not drawn) [Example 35, dimethyl-{4-[4-(1-methylpiperidin-4-yloxy)-9,10-dihydro-4H-3,10a-diaza-benzo[f]azulen-2-yl]-phenyl}-amine oxalate], for which the pKi was over 6.00.

Molecule `Cc1ccc(-c2cn3c(n2)C(OC2CCN(C)CC2)c2ccccc2CC3)cn1` (stereo not drawn) [Example 39, 4-(1-methylpiperidin-4-yloxy)-2-(6-methylpyridin-3-yl)-9,10-dihydro-4H-3,10a-diaza-benzo[f]azulene oxalate] had a pKi of over 6.00.

As for `CN1CCC(OC2c3ccccc3CCn3cc(-c4ncco4)nc32)CC1` (stereo not drawn) [Example 40, 4-(1-methylpiperidin-4-yloxy)-2-oxazol-2-yl-9,10-dihydro-4H-3,10a-diaza-benzo[f]azulene oxalate], the pKi is over 6.00.

Turning to `CN1CCC(OC2c3ccccc3CCn3cc(-c4ccncc4)nc32)CC1` (stereo not drawn) [Example 44, 4-(1-methylpiperidin-4-yloxy)-2-pyridin-4-yl-9,10-dihydro-4H-3,10a-diaza-benzo[f]azulene oxalate], the pKi was over 6.00.

In turn, `CN1CCC(OC2c3ccccc3CCn3cc(-c4cccnc4)nc32)CC1` (stereo not drawn) [Example 45, 4-(1-methylpiperidin-4-yloxy)-2-pyridin-3-yl-9,10-dihydro-4H-3,10a-diaza-benzo[f]azulene oxalate] gave a pKi of over 6.00.

`CN1CCC(OC2c3ccccc3CCn3cc(-c4cncs4)nc32)CC1` (stereo not drawn) [Example 48, 4-(1-methylpiperidin-4-yloxy)-2-thiazol-5-yl-9,10-dihydro-4H-3,10a-diaza-benzo[f]azulene oxalate]: the pKi was over 6.00.

`Cc1ccc(-c2cn3c(n2)C(OC2CCN(C)CC2)c2ccccc2CC3)o1` (stereo not drawn) [Example 51, 2-(5-methylfuran-2-yl)-4-(1-methylpiperidin-4-yloxy)-9,10-dihydro-4H-3,10a-diaza-benzo[f]azulene oxalate] had a pKi of over 6.52.

In the case of `CN1CCC(OC2c3ccccc3CCn3cc(-c4ccc(Cl)cc4)nc32)CC1` (stereo not drawn) [Example 52, 2-(4-chloro-phenyl)-4-(1-methylpiperidin-4-yloxy)-9,10-dihydro-4H-3,10a-diaza-benzo[f]azulene oxalate], the pKi is over 7.52.

`CN1CCC(OC2c3ccccc3CCn3cc(C=CC(=O)OC(C)(C)C)nc32)CC1` (stereo not drawn) [Example 53, 3-[4-(1-methylpiperidin-4-yloxy)-9,10-dihydro-4H-3,10a-diaza-benzo[f]azulen-2-yl]-acrylic acid tert-butyl ester oxalate] showed a pKi of over 6.00.

Take `Cc1cc(C(F)(F)F)ccc1-c1cn2c(n1)C(OC1CCN(C)CC1)c1ccccc1CC2` (stereo not drawn) [Example 55, 4-(1-methylpiperidin-4-yloxy)-2-(2-methyl-4-trifluoromethyl-phenyl)-9,10-dihydro-4H-3,10a-diaza-benzo[f]azulene]: the pKi is over 6.52.

As to `CN1CCC(OC2c3ccccc3CCn3cc(C4=CCSCC4)nc32)CC1` (stereo not drawn) [Example 57, 2-(3,6-dihydro-2H-thiopyran-4-yl)-4-(1-methylpiperidin-4-yloxy)-9,10-dihydro-4H-3,10a-diaza-benzo[f]azulene], the pKi is over 6.52.

For the molecule `CN1CCC(OC2c3ccccc3CCn3cc(C=CC4CCCCC4)nc32)CC1` (stereo not drawn) [Example 59, 2-(2-cyclohexyl-vinyl)-4-(1-methylpiperidin-4-yloxy)-9,10-dihydro-4H-3,10a-diaza-benzo[f]azulene], the pKi was over 6.52.

`Cc1ccc(-c2cn3c(n2)C(OC2CCN(C)CC2)c2ccccc2CC3)c(C)c1` (stereo not drawn) [Example 61, 2-(2,4-dimethylphenyl)-4-(1-methylpiperidin-4-yloxy)-9,10-dihydro-4H-3,10a-diaza-benzo[f]azulene] had a pKi of over 6.52.

Take `CN1CCC(OC2c3ccccc3CCn3cc(-c4nccs4)nc32)CC1` (stereo not drawn) [Example 66, 4-(1-methylpiperidin-4-yloxy)-2-thiazol-2-yl-9,10-dihydro-4H-3,10a-diaza-benzo[f]azulene oxalate]: the pKi is over 6.52.

In the case of `CN1CCC(OC2c3ccccc3CCn3cc(-c4ccc(Cl)cc4Cl)nc32)CC1` (stereo not drawn) [Example 71, 2-(2,4-dichlorophenyl)-4-(1-methylpiperidin-4-yloxy)-9,10-dihydro-4H-3,10a-diaza-benzo[f]azulene oxalate], the pKi was over 7.52.

`CN1CCC(OC2c3ccccc3CCn3cc(Sc4ccccc4)nc32)CC1` (stereo not drawn) [Example 73, 4-(1-methylpiperidin-4-yloxy)-2-phenylsulfanyl-9,10-dihydro-4H-3,10a-diaza-benzo[f]azulene oxalate] showed a pKi of over 6.52.

`CN1CCC(OC2c3cccc(Cl)c3CCn3cc(I)nc32)CC1` (stereo not drawn) [Example 78, 8-chloro-2-iodo-4-(1-methylpiperidin-4-yloxy)-9,10-dihydro-4H-3,10a-diaza-benzo[f]azulene]: the pKi is over 6.52.

In turn, `CN1CCC(OC2c3ccccc3CCn3cc(-c4cccn4C)nc32)CC1` (stereo not drawn) [Example 83, 4-(1-methylpiperidin-4-yloxy)-2-(1-methyl-1H-pyrrol-2-yl)-9,10-dihydro-4H-3,10a-diaza-benzo[f]azulene] gave a pKi of over 6.00.

`CN1CCC(OC2c3ccccc3CCn3cc(SCCNC(=O)OC(C)(C)C)nc32)CC1` (stereo not drawn) [Example 84, {2-[4-(1-methylpiperidin-4-yloxy)-9,10-dihydro-4H-3,10a-diaza-benzo[f]azulen-2-ylsulfanyl]-ethyl}-carbamic acid tert-butyl ester oxalate] showed a pKi of over 6.52.

Molecule `CN1CCC(OC2c3ccccc3CCn3cc(SCc4ccco4)nc32)CC1` (stereo not drawn) [Example 85, 2-(furan-2-ylmethylsulfanyl)-4-(1-methylpiperidin-4-yloxy)-9,10-dihydro-4H-3,10a-diaza-benzo[f]azulene oxalate] gave a pKi of over 6.52.

`CN1CCC(OC2c3ccccc3CCn3cc(C=CCCCc4ccccc4)nc32)CC1` (stereo not drawn) [Example 89, 4-(1-methylpiperidin-4-yloxy)-2-(5-phenylpent-1-enyl)-9,10-dihydro-4H-3,10a-diaza-benzo[f]azulene] had a pKi of over 7.52.

Regarding `CN1CCC(OC2c3cccc(Cl)c3CCn3cc(-c4ccccc4)nc32)CC1` (stereo not drawn) [Example 91, 8-chloro-4-(1-methylpiperidin-4-yloxy)-2-phenyl-9,10-dihydro-4H-3,10a-diaza-benzo[f]azulene], the pKi is over 6.52.

Consider `CN1CCC(OC2c3cccc(-c4ccccc4)c3CCn3cc(-c4ccccc4)nc32)CC1` (stereo not drawn) [Example 92, 4-(1-methylpiperidin-4-yloxy)-2,8-diphenyl-9,10-dihydro-4H-3,10a-diaza-benzo[f]azulene], for which the pKi was over 6.52.

Turning to `CN1CCC(OC2c3ccccc3CCn3cc(CCC4CCCCC4)nc32)CC1` (stereo not drawn) [Example 95, 2-(2-cyclohexylethyl)-4-(1-methylpiperidin-4-yloxy)-9,10-dihydro-4H-3,10a-diaza-benzo[f]azulene oxalate], the pKi is over 7.52.

`CN1CCC(OC2c3ccccc3CCn3cc(SC4CCCCC4)nc32)CC1` (stereo not drawn) [Example 98, 2-cyclohexylsulfanyl-4-(1-methylpiperidin-4-yloxy)-9,10-dihydro-4H-3,10a-diaza-benzo[f]azulene oxalate] had a negative logarithm of the Ki (pKi) of over 6.52.

Turning to `CNc1ccc(-c2cn3c(n2)C(OC2CCN(C)CC2)c2ccccc2CC3)cc1` (stereo not drawn) [Example 100, methyl-{4-[4-(1-methylpiperidin-4-yloxy)-9,10-dihydro-4H-3,10a-diaza-benzo[f]azulen-2-yl]-phenyl}-amine oxalate], the pKi is over 6.00.

Molecule `CN1CCC(OC2c3ccccc3CCn3cc(-c4ccc(N(C)C(=O)C(C)(C)C)cc4)nc32)CC1` (stereo not drawn) [Example 101, 2,2,N-trimethyl-N-{4-[4-(1-methylpiperidin-4-yloxy)-9,10-dihydro-4H-3,10a-diaza-benzo[f]azulen-2-yl]-phenyl}-propionamide oxalate] gave a pKi of over 6.52.

The values above are taken from US9255101B2 (BIOPROJECT, priority 2012, dated 2016).
